{"source": "ChEMBL document CHEMBL1201862", "about": "“PubChem BioAssay data set” (2004)", "key": {"[1]": {"test": "cytotoxicity toward NIH3T3 fibroblasts, dose response, counter-screen, cell-based, ATP luminescence, mouse fibroblasts (AID 2010);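 also: cells exposed to compound for about 90 hours before reading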", "format": "functional"}, "[2]": {"test": "inhibitors of intracellular T. cruzi replication, confirmation, NIH3T3 host cells, beta-gal luminescence (AID 2044);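 also: luminescent beta-galactosidase reporter signal from transgenic T. cruzi replicating inside host cells; inhibitors lower the luminescence signal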", "format": "functional, cell-based"}, "Cytochrome P450 2C19": {"target": "Cytochrome P450 2C19 (Homo sapiens, UniProt P33261)", "sequence (P33261 whole entry)": "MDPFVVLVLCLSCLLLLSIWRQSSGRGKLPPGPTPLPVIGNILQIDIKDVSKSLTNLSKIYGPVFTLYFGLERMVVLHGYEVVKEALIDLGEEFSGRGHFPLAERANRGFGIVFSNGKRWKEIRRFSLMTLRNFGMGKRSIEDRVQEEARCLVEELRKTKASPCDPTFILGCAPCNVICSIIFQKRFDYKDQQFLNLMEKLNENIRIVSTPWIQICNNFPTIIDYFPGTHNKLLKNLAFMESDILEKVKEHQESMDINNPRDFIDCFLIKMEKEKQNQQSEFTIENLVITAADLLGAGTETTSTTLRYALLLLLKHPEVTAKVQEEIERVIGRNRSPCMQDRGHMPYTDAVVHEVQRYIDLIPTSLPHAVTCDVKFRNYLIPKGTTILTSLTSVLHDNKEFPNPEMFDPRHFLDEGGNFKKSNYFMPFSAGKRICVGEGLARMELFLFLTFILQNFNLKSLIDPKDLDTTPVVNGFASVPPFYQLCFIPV", "test": "Cytochrome panel assay with activity outcomes. Panel member name: p450-cyp2c19 Compounds with AC50 equal or less than 10 uM are considered active", "format": "functional", "conditions": "read-out: AC50"}, "Cytochrome P450 3A4": {"target": "Cytochrome P450 3A4 (Homo sapiens, UniProt P08684)", "sequence (P08684 whole entry)": "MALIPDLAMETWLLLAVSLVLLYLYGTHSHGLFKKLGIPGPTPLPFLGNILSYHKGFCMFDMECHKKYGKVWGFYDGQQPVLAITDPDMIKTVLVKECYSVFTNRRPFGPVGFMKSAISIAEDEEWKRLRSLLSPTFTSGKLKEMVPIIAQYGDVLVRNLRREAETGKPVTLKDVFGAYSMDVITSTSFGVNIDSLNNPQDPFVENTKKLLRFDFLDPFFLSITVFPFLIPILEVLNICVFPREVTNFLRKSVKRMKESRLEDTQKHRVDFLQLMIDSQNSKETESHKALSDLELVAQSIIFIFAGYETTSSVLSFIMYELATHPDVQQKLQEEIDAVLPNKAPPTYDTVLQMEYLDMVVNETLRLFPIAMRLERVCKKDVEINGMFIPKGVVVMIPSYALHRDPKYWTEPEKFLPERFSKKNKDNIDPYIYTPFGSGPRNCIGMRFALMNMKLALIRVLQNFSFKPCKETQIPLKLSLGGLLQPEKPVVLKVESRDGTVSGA"}, "[3]": {"target": "T1, Heat shock factor protein 1 (Mus musculus, UniProt P38532)", "T1 sequence (P38532 whole entry)": "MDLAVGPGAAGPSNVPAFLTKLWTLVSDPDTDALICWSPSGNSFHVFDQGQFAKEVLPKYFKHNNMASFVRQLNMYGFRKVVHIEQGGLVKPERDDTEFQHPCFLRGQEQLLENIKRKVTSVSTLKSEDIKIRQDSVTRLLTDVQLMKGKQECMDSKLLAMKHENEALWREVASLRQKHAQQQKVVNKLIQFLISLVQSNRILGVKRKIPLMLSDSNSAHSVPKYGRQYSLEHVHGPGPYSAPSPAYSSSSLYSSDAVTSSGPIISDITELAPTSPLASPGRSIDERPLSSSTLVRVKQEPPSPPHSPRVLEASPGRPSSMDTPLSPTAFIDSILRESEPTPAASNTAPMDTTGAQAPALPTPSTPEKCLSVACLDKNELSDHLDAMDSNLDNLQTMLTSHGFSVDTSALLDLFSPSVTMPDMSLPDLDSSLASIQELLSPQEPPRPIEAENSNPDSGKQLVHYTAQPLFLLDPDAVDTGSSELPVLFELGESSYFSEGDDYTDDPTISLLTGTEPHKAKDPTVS", "test": "inhibition of MG132-induced HSE-luciferase signal, confirmation, cell-based, NIH3T3, luminescence, dose retest (AID 2382);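 also: NIH3T3 fibroblasts with HSF1-driven luciferase reporter stressed by proteasome inhibitor MG132; luminescence from HSF1-driven luciferase expression after 8 hours of MG132 stress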", "format": "functional"}, "[4]": {"tested_on": "Streptococcus sp. 'group A'", "test": "growth inhibition of control SK(-) GAS strain, dose response, counter-screen for streptokinase expression inhibitor project, luminescence, kanamycin, BacTiterGlo, confirmation (AID 1900)", "format": "functional, organism-based"}, "Streptococcus": {"tested_on": "Streptococcus", "test": "Group A Streptococcus viability loss, dose response, counter-screen for streptokinase expression inhibitor project, luminescence, BacTiterGlo (AID 1915);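 also: potency for reduction of bacterial viability or growth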", "format": "functional, organism-based"}, "Streptokinase A": {"target": "T2, Streptokinase A (Streptococcus pyogenes serotype M1, UniProt P10520)", "T2 sequence (P10520 whole entry)": "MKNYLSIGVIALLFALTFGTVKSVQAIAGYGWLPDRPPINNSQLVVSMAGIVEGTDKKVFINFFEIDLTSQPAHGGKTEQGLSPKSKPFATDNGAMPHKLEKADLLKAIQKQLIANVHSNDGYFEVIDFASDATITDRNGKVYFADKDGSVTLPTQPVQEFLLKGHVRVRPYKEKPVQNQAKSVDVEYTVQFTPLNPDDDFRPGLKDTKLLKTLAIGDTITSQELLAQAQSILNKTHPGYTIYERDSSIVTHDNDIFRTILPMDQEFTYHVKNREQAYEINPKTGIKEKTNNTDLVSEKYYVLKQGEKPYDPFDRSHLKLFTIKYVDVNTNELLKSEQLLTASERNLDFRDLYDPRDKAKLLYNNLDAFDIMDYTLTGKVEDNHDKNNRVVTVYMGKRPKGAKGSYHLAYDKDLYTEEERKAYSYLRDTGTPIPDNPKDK", "test": "S. pyogenes streptokinase expression inhibitors, potency, dose response, plasminogen activation absorbance, OD405 (AID 1914);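 also: secreted streptokinase activity via plasminogen activation per viability signal from cell pellet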", "format": "functional, Streptococcus pyogenes M1 GAS"}, "Cytochrome P450 2C9": {"target": "Cytochrome P450 2C9 (Homo sapiens, UniProt P11712)", "sequence (P11712 whole entry)": "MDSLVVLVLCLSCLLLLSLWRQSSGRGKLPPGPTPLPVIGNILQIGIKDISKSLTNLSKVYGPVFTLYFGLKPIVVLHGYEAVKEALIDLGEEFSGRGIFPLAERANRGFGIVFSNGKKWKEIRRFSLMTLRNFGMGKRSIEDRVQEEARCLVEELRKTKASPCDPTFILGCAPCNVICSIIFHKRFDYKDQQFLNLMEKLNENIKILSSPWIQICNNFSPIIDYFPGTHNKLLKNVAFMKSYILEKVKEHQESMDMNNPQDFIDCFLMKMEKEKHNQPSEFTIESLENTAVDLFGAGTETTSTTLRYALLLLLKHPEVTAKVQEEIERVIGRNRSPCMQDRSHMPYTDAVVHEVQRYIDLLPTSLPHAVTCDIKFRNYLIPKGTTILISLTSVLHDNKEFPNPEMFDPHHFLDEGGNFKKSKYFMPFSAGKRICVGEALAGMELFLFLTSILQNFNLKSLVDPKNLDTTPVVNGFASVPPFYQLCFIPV"}}, "note": "Activity calls are given as the source filed them."}
{"smiles": "CCN(CC)CCCSc1nc2ccccc2s1", "values": [{"measurement": "EC50", "setting": "[1]", "result": "> 30 µM (not active)"}, {"measurement": "EC50", "setting": "[2]", "result": "0.445 µM (active)"}]}
{"smiles": "C[C@@H](CCCCC(=O)Nc1ccc(C(F)(F)F)cc1)NCCc1c[nH]cn1", "values": [{"measurement": "AC50", "setting": "Cytochrome P450 2C19", "result": "15.8 µM (inconclusive)"}]}
{"smiles": "CCOc1ccc(CCNC(=O)c2cc(-c3ccccc3)c(N3CCOCC3)s2)cc1", "values": [{"measurement": "EC50", "setting": "[1]", "result": "> 60 µM (not active)"}, {"measurement": "EC50", "setting": "[2]", "result": "1.45 µM (active)"}]}
{"smiles": "CCCCN(C)CC(O)Cn1cc(/C=C/C(=O)c2ccc(OCC)cc2)c2ccccc21", "note": "(stereo not given)", "values": [{"measurement": "EC50", "setting": "[1]", "result": "6.17 µM (active)"}, {"measurement": "EC50", "setting": "[2]", "result": "0.154 µM (active)"}]}
{"smiles": "O=C(Oc1ccccc1)N1CCC[C@@]2(CCN(c3ncccn3)C2)C1", "values": [{"measurement": "AC50", "setting": "Cytochrome P450 3A4", "result": "15.8 µM (inconclusive)"}]}
{"smiles": "Cc1[nH]c2ccccc2c1/C=C/c1nc2ccccc2c(=O)n1-c1cccc([N+](=O)[O-])c1", "values": [{"measurement": "EC50", "setting": "[3]", "result": "> 195 µM (not active)"}]}
{"smiles": "N#Cc1cccc(-c2cc(NCc3cccnc3)ncn2)c1", "values": [{"measurement": "AC50", "setting": "Cytochrome P450 2C19", "result": "15.8 µM (inconclusive)"}]}
{"smiles": "CCOC(=O)c1cccc(NC(=O)C2CCN(c3ncnc4c3nc3n4CCCCC3)CC2)c1", "values": [{"measurement": "EC50", "setting": "[3]", "result": "> 195 µM (not active)"}]}
{"smiles": "CCOc1ccc(-n2c(SCc3nc(-c4cccs4)no3)nnc2-c2ccncc2)cc1", "values": [{"measurement": "EC50", "setting": "[1]", "result": "> 60 µM (not active)"}, {"measurement": "EC50", "setting": "[2]", "result": "1.25 µM (active)"}]}
{"smiles": "COc1ccc(-c2cc3nc(C)c(CCC(=O)NCc4ccc(F)cc4)c(C)n3n2)c(OC)c1", "values": [{"measurement": "EC50", "setting": "[1]", "result": "> 60 µM (inconclusive)"}, {"measurement": "EC50", "setting": "[2]", "result": "1.33 µM (active)"}]}
{"smiles": "Cc1cccc(C(=O)NC2CCN(C(=O)N3CCOCC3)CC2)c1", "values": [{"measurement": "AC50", "setting": "Cytochrome P450 2C19", "result": "31.6 µM (inconclusive)"}]}
{"smiles": "CCS(=O)(=O)c1nc(S(=O)(=O)c2ccc(C)cc2)c(NCCN2CCOCC2)s1", "values": [{"measurement": "EC50", "setting": "[4]", "result": "> 150 µM (not active)"}, {"measurement": "EC50", "setting": "Streptococcus", "result": "> 150 µM (not active)"}, {"measurement": "EC50", "setting": "Streptokinase A", "result": "> 150 µM (not active)"}]}
{"smiles": "CCOC(=O)n1c(SCC(N)=O)nc2ccccc21", "values": [{"measurement": "EC50", "setting": "[3]", "result": "> 195 µM (not active)"}]}
{"smiles": "C=CCO/C(O)=C1\\C(C)=NC(SCC)=C(C#N)C1c1ccc(Cl)cc1", "note": "(stereo not given)", "values": [{"measurement": "EC50", "setting": "[4]", "result": "4.9 µM (active)"}, {"measurement": "EC50", "setting": "Streptococcus", "result": "17.6 µM (active)"}, {"measurement": "EC50", "setting": "Streptokinase A", "result": "8.34 µM (active)"}]}
{"smiles": "COc1ccc(O[C@H]2C=C[C@@H](c3ccccc3)O[C@H]2COC(=O)CC/C(C)=N\\O[C@@H](C)c2cc(-c3c(C)cc(C)cc3C)no2)cc1", "values": [{"measurement": "AC50", "setting": "Cytochrome P450 2C9", "result": "1.58 µM (inconclusive)"}]}
{"smiles": "CN1CCN(C(=O)c2ccc3c(=O)n4c(nc3c2)CCCCC4)CC1", "values": [{"measurement": "AC50", "setting": "Cytochrome P450 2C19", "result": "10 µM (inconclusive)"}]}
{"smiles": "O=C(C1CCC(CNS(=O)(=O)c2cccc3cccnc23)CC1)N1CCCC1", "note": "(stereo not given)", "values": [{"measurement": "EC50", "setting": "[3]", "result": "> 195 µM (not active)"}]}
{"smiles": "CCOc1ccc(-n2c(C)cc(/C=C3/C(=N)N4C(=NC3=O)SN=C4S(C)(=O)=O)c2C)cc1", "values": [{"measurement": "EC50", "setting": "[4]", "result": "0.599 µM (active)"}, {"measurement": "EC50", "setting": "Streptococcus", "result": "17.5 µM (active)"}, {"measurement": "EC50", "setting": "Streptokinase A", "result": "> 150 µM (not active)"}]}
{"smiles": "COc1ccc(NC(=O)C23CC4CC(C2)CC(n2cnc(Br)n2)(C4)C3)c(C)c1", "values": [{"measurement": "AC50", "setting": "Cytochrome P450 3A4", "result": "14.1 µM (inconclusive)"}]}
{"smiles": "Cc1cc(C)n(-c2cc(N3CCN(S(=O)(=O)c4ccc(C)c(C)c4)CC3)ccc2[N+](=O)[O-])n1", "values": [{"measurement": "AC50", "setting": "Cytochrome P450 2C9", "result": "2.24 µM (inconclusive)"}]}
{"smiles": "CC(Sc1nnc(Cc2cccs2)n1C1CCCCC1)C(N)=O", "note": "(stereo not given)", "values": [{"measurement": "AC50", "setting": "Cytochrome P450 3A4", "result": "3.98 µM (inconclusive)"}]}
{"smiles": "Cc1ccc(CN2C(=O)CCC2C(=O)NCc2cccnc2)cc1", "note": "(stereo not given)", "values": [{"measurement": "AC50", "setting": "Cytochrome P450 2C9", "result": "28.2 µM (inconclusive)"}]}
{"smiles": "Clc1ccc(/C=N/N=C(/Nc2ccccc2)c2ccccn2)c(Cl)c1", "values": [{"measurement": "EC50", "setting": "[4]", "result": "10.9 µM (active)"}, {"measurement": "EC50", "setting": "Streptococcus", "result": "30.2 µM (active)"}, {"measurement": "EC50", "setting": "Streptokinase A", "result": "> 150 µM (not active)"}]}
{"smiles": "O=C(O)CCC(=O)N1CCc2cc(S(=O)(=O)NCc3cccs3)ccc21", "values": [{"measurement": "AC50", "setting": "Cytochrome P450 2C9", "result": "31.6 µM (inconclusive)"}, {"measurement": "AC50", "setting": "Cytochrome P450 2C19", "result": "25.1 µM (inconclusive)"}]}
{"smiles": "COCCOC(=O)C1=C(C)N=C(C)/C(=C(/O)OC(C)C)C1c1cccc([N+](=O)[O-])c1", "note": "(stereo not given)", "values": [{"measurement": "EC50", "setting": "[1]", "result": "> 60 µM (not active)"}, {"measurement": "EC50", "setting": "[2]", "result": "1.31 µM (active)"}]}
{"smiles": "CCOc1nn(-c2ccc(Cl)cc2)c(O)c1/C=N/c1ccc(Cl)cc1", "values": [{"measurement": "AC50", "setting": "Cytochrome P450 2C9", "result": "12.6 µM (inconclusive)"}]}
{"smiles": "COc1ccc2nc(/N=C\\N(C)C)sc2c1", "values": [{"measurement": "AC50", "setting": "Cytochrome P450 2C9", "result": "0.00562 µM (inconclusive)"}, {"measurement": "AC50", "setting": "Cytochrome P450 2C19", "result": "22.4 µM (inconclusive)"}]}
{"smiles": "CC1(C)OC(=O)C(/C=N/c2cccc(O)c2)=C(O)O1", "values": [{"measurement": "AC50", "setting": "Cytochrome P450 3A4", "result": "31.6 µM (inconclusive)"}]}
{"smiles": "CC(=O)Oc1ccc2c(c1)CC[C@@H]1[C@@H]2CC[C@]2(C)[C@@H](O)CC[C@@H]12", "note": "[ESTRADIOL ACETATE]", "values": [{"measurement": "EC50", "setting": "[3]", "result": "> 195 µM (not active)"}]}
